{"source": "paper PMC4718634", "about": "“Murine GPRC6A Mediates Cellular Responses to L-Amino Acids, but Not Osteocalcin Variants” (PLoS ONE, 2016)", "key": {"[1]": {"target": "T1, mGPRC6A (mouse GPRC6A) (Mus musculus, UniProt Q8K4Z6)", "T1 sequence (Q8K4Z6 21-928)": "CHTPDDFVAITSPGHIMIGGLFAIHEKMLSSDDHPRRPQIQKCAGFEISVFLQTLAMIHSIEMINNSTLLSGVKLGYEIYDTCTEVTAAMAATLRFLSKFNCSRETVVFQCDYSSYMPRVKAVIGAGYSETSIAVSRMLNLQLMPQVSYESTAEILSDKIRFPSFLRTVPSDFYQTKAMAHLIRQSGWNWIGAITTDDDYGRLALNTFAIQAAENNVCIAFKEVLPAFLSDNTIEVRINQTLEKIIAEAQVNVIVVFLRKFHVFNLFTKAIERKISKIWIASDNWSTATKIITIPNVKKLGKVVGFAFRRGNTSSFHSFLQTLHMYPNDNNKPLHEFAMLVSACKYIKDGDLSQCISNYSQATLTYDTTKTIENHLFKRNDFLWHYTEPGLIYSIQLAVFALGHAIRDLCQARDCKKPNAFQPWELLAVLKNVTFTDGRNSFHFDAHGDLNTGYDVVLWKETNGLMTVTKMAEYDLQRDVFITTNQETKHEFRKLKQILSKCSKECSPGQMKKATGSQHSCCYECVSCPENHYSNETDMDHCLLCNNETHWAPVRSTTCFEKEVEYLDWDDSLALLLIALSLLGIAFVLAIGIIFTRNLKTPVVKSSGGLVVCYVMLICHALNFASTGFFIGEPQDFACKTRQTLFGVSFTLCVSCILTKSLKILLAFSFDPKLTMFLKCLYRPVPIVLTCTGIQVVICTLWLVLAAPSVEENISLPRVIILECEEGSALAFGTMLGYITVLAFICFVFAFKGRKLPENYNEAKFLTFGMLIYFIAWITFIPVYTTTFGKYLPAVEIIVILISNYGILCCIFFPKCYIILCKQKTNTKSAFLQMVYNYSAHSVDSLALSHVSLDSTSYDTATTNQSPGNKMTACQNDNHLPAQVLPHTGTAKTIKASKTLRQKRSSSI", "assay": "Ca^2+i mobilisation, FlpIn-TREx-HEK293-mGPRC6A cells", "type": "cell-based", "description": "(§1) pcDNA 5/FRT/TO constructs were isogenically integrated into a FlpIn-TREx-HEK293 cell line (Life Technologies). FlpIn-TREx-HEK293-mGPRC6A and FlpIn-TREx-HEK293-hGPRC6A cells were then selected using 600 μg/ml hygromycin and 5 μg/ml blasticidin and grown in culture medium consisting of Dulbecco’s Modified Eagle Medium (DMEM), supplemented with 10% (v/v) foetal bovine serum (FBS) at 37°C in 5% CO2 and were sub-cultured in a 1:3 ratio every 3–4 days. Cells were cultured overnight in the presence of 1 μg/ml tetracycline to induce GPRC6A expression. […] 48 h after transfection, cells were selected using 3 μg/ml puromycin and grown as above.\nFlpIn-TREx-HEK293-mGPRC6A cells were seeded into T75 flasks at 70% confluency. Cells were transfected with 15μg of plasmid DNA (Gαq or GαqG66D) with Lipofectamine LTX according to manufacturer's instructions, then incubated for 24h at 37°C in 5% CO2. Cells were plated into 96-well plates (10^5 cells/well) and equilibrated at 37°C in 5% CO2 for 4-6h to adhere, whereupon cells were serum starved overnight at 37°C in 5% CO2. For the assay, cells were washed twice in Ca^2+ assay buffer (150 mM NaCl, 2.6 mM KCl, 1.2 mM MgCl2, 10 mM dextrose, 10 mM HEPES, 2.2 mM CaCl2, 0.5% (w/v) BSA and 4 mM probenecid; pH 7.4). Buffer was then replaced with Ca^2+ assay buffer containing 1μM Fluo-4-AM and incubated for 1h at 37°C in 5% CO2. Cells were washed twice more and replaced with Ca^2+ assay buffer at 37°C. Serial dilutions of test agonists were added by injection in a Flexstation™ (Molecular Devices) and fluorescence was measured at 485nm excitation and 520nm emission wavelengths. Agonist responses were normalised to the peak of response to 100 μM ATP.\n(§2) Data for all HEK293 assays represent the mean ± SEM of at least three independent experiments (except cell impedance, n = 2). For GLP-1 release, the data represent mean ± SEM of three to five independent experiments (except for OCN, wash; n = 2). For insulin release assays, data represent the mean ± SEM of three independent experiments (except for islet studies; n = 2). Insulin release data were normalised to the response to vehicle in either low or high [glucose]. Statistical analysis for GLP-1 release data were performed by one-way ANOVA, followed by Sidak’s multiple comparisons test (treating wash / no wash datasets separately). Statistical analyses for insulin release data were performed by two-way ANOVA (with [glucose] and drug treatment as group variables), followed by Sidak’s multiple comparisons test. Where only high [glucose] groups were evaluated, statistical analysis was by one-way ANOVA followed by Sidak’s multiple comparisons test."}, "[2]": {"tested_on": "GPRC6A", "design": "method as in PMID 15576628", "details": "chimera with goldfish 5.24 receptor and full length GPRC6A; ref [1]; cited from earlier work"}, "[3]": {"target": "T1, mGPRC6A (mouse GPRC6A)", "assay": "Cyclic AMP accumulation, FlpIn-TREx-HEK293-mGPRC6A cells", "type": "cell-based", "details": "30 min, 0.5 mM IBMX; Alphascreen; Fig 3A", "description": "as §1\nHEK293-mGPRC6A cells were seeded at a density of 10^5 cells per well into PDL-coated 96-well plates and incubated overnight in DMEM, supplemented with 10% FBS (v/v) at 37°C in 5% CO2. Cells were then incubated in 90 μl of stimulation buffer (HBSS containing 5 mM HEPES, 0.1% BSA (w/v), 0.5 mM IBMX; pH 7.4) for 30 min at 37°C. Test compounds (10 μl at 10 x final) were added and cells were incubated for an additional 30 min at 37°C. The medium was removed and cells were incubated in 50 μl of ice-cold 100% ethanol. Once evaporated, 100 μl of lysis buffer (5 mM HEPES, 0.1% BSA (w/v), 0.3% Tween-20; pH 7.4) was added to the cells and samples were stored at -20°C until further analysis. Samples were analysed using the Alphascreen® cAMP assay kit (Perkin Elmer) following manufacturer instructions. Briefly, 10 μl of lysates were added to a 384-well Optiplate. After addition of 5 μl of acceptor bead mix, plate was incubated at RT for 30 min followed by addition of 15 μl of donor bead mix. After overnight (16 h) incubation at RT, plates were read using the Envision plate reader."}, "[4]": {"tested_on": "GLUTag cells", "assay": "GLP-1 release from GLUTag cells", "type": "cell-based, murine", "details": "0.01–10 ng/ml; with or without cell washing; 2 h; Fig 6A", "description": "Intestinal L-cell model GLUTag cells were seeded in 24-well plates coated with Matrigel and incubated for 6 days in DMEM with 10% FBS, 100 U/ml penicillin, 100 μg/ml streptomycin at 37°C in 5% CO2 and grown for 4–5 days. Where indicated, cells were washed (1 or 2 x 1h) with Krebs-HEPES buffer (20 mM HEPES, 118 mM NaCl, 4.7 mM KCl, 1.2 mM MgSO4, 5 mM NaHCO3, 1.2 mM KH2PO4, 2.5 mM CaCl2, 5.5 mM glucose, 0.2% BSA (w/v), pH 7.2) containing vildagliptin (300 μM) prior to addition of test compounds in the same buffer. After 2 h incubation at 37°C in 5% CO2, the supernatant was recovered and centrifuged at 500 rpm for 5 min. Where used, NPS-2143 pre-treatment was for 30 min.\nGLP-1 content in the cell supernatant was measured by ELISA (EGLP-35K, Millipore), according to manufacturer’s instructions after overnight incubation of 15 μl supernatant in 100 μl Krebs-HEPES buffer at 4°C. After 5 x washes, 200 μl of detection conjugate was added and incubated for 2 h at RT. After 3 x washes the reaction was developed with 200 μl of diluted substrate (1:200) for 20 min and terminated by addition of 50 μl stop solution. After 5 min, fluorescence was then measured using 355 nm excitation and 460 nm emission, transforming the obtained signal into pmol GLP-1/well/ml and corrected for GLUTag cell protein content as determined using the method of Bradford (1976).\nas §2, with “Concentration-response data were analysed using a three or four parameter logistic function (Motulsky & Christopoulos, 2004) to generate estimates of agonist potency (LogEC50). Data” for “Data”"}, "[5]": {"tested_on": "β-TC6 cells", "assay": "Insulin release from β-TC6 cells", "type": "cell-based, murine", "details": "OCN 0.03–100 ng/ml; both glucose concentrations; S3 Fig A", "description": "(§3) MIN6 or βTC-6 cells were seeded in 24-well plates at 170,000 cells per well in DMEM (containing 4.5g/L glucose, 10 mM HEPES, 100 U/ml penicillin, 100 μg/ml streptomycin and 15% de-complemented FBS) and incubated at 37°C / 5% CO2 for 72 h. Cells were then washed with 500 μl PBS and incubated in 500 μl deprivation media (DMEM with zero glucose, 10 mM HEPES, 1 mM Na-pyruvate, 100 U/ml penicillin, 100 μg/ml streptomycin, 15% de-complemented FBS) for 2 h at 37°C. Media was aspirated and after washing with 500 μl PBS, cells were treated with 250 μl of Krebs buffer (250 mM NaCl, 5.9 mM KCl, 1.2 mM MgCl2, 1.3 mM CaCl2, 25 mM HEPES, 0.1% BSA (w/v), and 2 mM or 16.7 mM glucose; pH 7.4) in the presence or absence of test compound. After incubation for 2 h at 37°C, the assay was terminated by placing the plates on ice and supernatants were transferred to a 96-well plate in preparation for insulin ELISA (Alpco) following manufacturer’s instructions. The cell monolayer was washed twice with 500 μl of PBS and then lysed using 250 μl of 1 N NaOH prior to protein measurement by the method of Bradford (1976).\nas §2, with “Concentration-response data were analysed using a three or four parameter logistic function (Motulsky & Christopoulos, 2004) to generate estimates of agonist potency (LogEC50). Data” for “Data”"}, "[6]": {"tested_on": "INS-1(832) cells", "assay": "Label-free cell impedance, INS-1(832) cells", "type": "cell-based, rat", "details": "Gprc6a-negative; EBSS, 2.8 mM glucose; Fig 7; two-way ANOVA, *P < 0.05, **P < 0.01 vs Vehicle; listed as synthetic mouse OCN", "description": "For INS-1 cells, 100 μl of medium (RPMI 1640 no glucose, 10% FBS, 55 μM β-mercaptoethanol, 1 mM sodium pyruvate, 10 mM HEPES, 100 U/ml penicillin, 100 μg/ml streptomycin, 11.1 mM glucose) was added per well to an E-plate 96 and a background reading taken. Cells were seeded at 2 x 10^4 / well and the plates incubated in the instrument for 48 h. On the day of the experiment, media was changed to EBSS buffer (180 μl; 2.8 mM glucose, 1.8 mM CaCl2, 5.3 mM KCl, 0.8 mM MgSO4, 117 mM NaCl, 26 mM NaHCO3, 1 mM NaH2PO4). After 2 h incubation, cells were stimulated with 20 μl test compound (10 x final) prepared in the same buffer. Data capture and analysis were as for HEK293 cells."}, "[7]": {"tested_on": "MIN6 cells", "assay": "Insulin release from MIN6 cells", "type": "cell-based, murine", "details": "mouse OCN 0.03–30 ng/mL, 0.03–100 ng/mL (Fig 6B legend); low and high glucose", "description": "as §3\nas §2, with “Concentration-response data were analysed using a three or four parameter logistic function (Motulsky & Christopoulos, 2004) to generate estimates of agonist potency (LogEC50). Data” for “Data”"}}, "note": "pEC50: −log10 of the molar value. Entries after “also recorded” stand apart in the source; their conditions may differ. Bridge positions count the residues as written; N and C are the ends. Ends that are not written are not given here."}
{"compound": "NCCCC[C@H](N)C(=O)O", "note": "[L-lysine]", "values": [{"measurement": "pEC50", "setting": "[1]", "value": 4.80}, {"measurement": "potency at murine GPRC6A (calcium and inositol phosphate, words)", "setting": "[1]; calcium mobilisation and inositol phosphate accumulation, Discussion", "value": "most potent agonists"}, {"measurement": "rank order of potency, Ca^2+ mobilisation", "setting": "[1]; co-expressing GαqG66D, Fig 1D", "value": "L-ornithine > L-arginine = L-lysine"}, {"measurement": "agonist response of GPRC6A", "setting": "[2]", "value": "mediates responses to L-amino acids"}]}
{"compound": "C=C[C@@]1(C)CC(=O)[C@]2(O)[C@@]3(C)[C@@H](O)CCC(C)(C)[C@@H]3[C@H](O)[C@H](OC(C)=O)[C@@]2(C)O1", "note": "[forskolin]", "values": [{"measurement": "stimulation of cAMP accumulation", "setting": "[3]", "value": "robust increases in cAMP levels"}]}
{"compound": "YLYQWLGAPVPYPDPLEPRREVCELNPDCDELADHIGFQEAYRRFYGPV-NH2/-COOH (disulfide) [human synthetic OCN (acid form), synthetic de-carboxylated human osteocalcin, Federation Bioscience]", "values": [{"measurement": "GLP-1 release, OCN", "setting": "[4]", "value": "did not increase GLP-1 release"}, {"measurement": "insulin secretion, OCN", "setting": "[5]", "value": "no significant effect"}]}
{"compound": "mouse synthetic OCN: synthetic de-carboxylated mouse osteocalcin, Federation Bioscience (YLGASVPSPDPLEPTREQCELNPACDELSDQYGLKTAYKRIYGITI-OH; disulfide 19-25 (inferred); not fully specified)", "values": [{"measurement": "change in cell impedance (cell index)", "setting": "[6]", "value": "significant changes in cell impedance; also recorded: Concentration-dependent increases in cell index"}, {"measurement": "insulin secretion, OCN", "setting": "[7]", "value": "did not affect insulin secretion"}]}
